Measurements taken from patent US12427152B2, “HDAC inhibitors for use with NK cell based therapies” (Viracta Therapeutics, Inc., priority 2016, dated 2025).

Legend:
PC3 cells [1] = experiment: Cell surface phenotype of PC3 cells by flow cytometry; type: cell-based; conditions: 657 nM, 2.5 h/day, 4 days
Procedure: (§1) After treatment with DMSO (vehicle) or VRx-3996, PC3 or […] cells were analyzed for their cell surface phenotype. Cells were exposed to CHR-3996 daily (657 nM, 2.5 h/day) or DMSO control for 4 consecutive days; on day 5, cells were examined by flow cytometry for cell-surface expression of proteins associated with immune recognition, stimulation, and inhibition. Overall VRx-3996 led to several changes in both cell lines.

HDAC [2] = experiment: Immunoblot for acetyl-lysine 9 on Histone H3 (HDAC activity) in MDA-MB-231 cells; type: cell-based; conditions: 657 nM, 2.5 h
Procedure: (§2) VRx-3996 was tested for its ability to inhibit HDAC activity in PC3 (prostate) and MDA-MB-231 (triple negative breast cancer) carcinoma cells. Cells were exposed to for 2.5 h to VRx-3996 (657 nM), or DMSO prior to being examined for the presence of acetyl-lysine 9 on Histone H3 by immunoblot.

[3] = test system: PBMCs from patients with metastatic breast cancer; experiment: Flow cytometry of immune cell subsets in PBMCs of patients with metastatic breast cancer; type: cell-based, human; conditions: 657 nM, 2.5 h/day, 2 days
Procedure: Peripheral blood mononuclear cells (PBMCs) from 7 patients with metastatic breast cancer were exposed to VRx-3996 daily (657 nM, 2.5 h/day) or DMSO control for 2 consecutive days and then examined by flow cytometry for different immune cell subsets analyzed: 9 standard immune cell subsets, 114 subsets relating to maturation/function.

HDAC [4] = experiment: Immunoblot for acetyl-lysine 9 on Histone H3 (HDAC activity) in PC3 cells; type: cell-based; conditions: 657 nM, 2.5 h
Procedure: as §2

PC3 cells [5] = experiment: NK cell lysis assay (In-111 release) with PC3 cells as target; type: cell-based; conditions: 657 nM, 2.5 h/day, 4 days, targets on day 5, primary NK cells and HaNK
Procedure: Tumor cell lines PC3 and MDA-MB-231, treated with VRx-3996, were tested for their ability to be killed by different primary NK cells and the NK cell line HaNK (NK cells with a high-affinity Fc receptor which has a mutation at 158V of human FcγRIIIa). PC3 and MDA-MB-231 cells were exposed to DMSO or CHR-3996 daily (657 nM, 2.5 h/day) for 4 consecutive days, prior to being used as targets on day 5 for direct NK killing in an overnight standard In-111 release lysis assay. Primary NK cells from human PBMCs of 2 healthy donors (isolated by negative selection), and NKs rested for 24 h at 37 C° and 5% CO2, or pre-exposed to ALT803 (25 ng/ml) for 24 h, were used. HaNK cells were used 24 h post 10 Gy radiation exposure. NK cells were plated and varying effector to target ratios (E:T) against PC3 cells (FIG. 3) and MDA-MB-231 cells (FIG. 4).

MDA-MB-231 cells = experiment: Cell surface phenotype of MDA-MB-231 cells by flow cytometry; type: cell-based; conditions: 657 nM, 2.5 h/day, 4 days
Procedure: as §1

[6] = PBMCs of patients with metastatic cancer

MIC-A/B % Pos (PC3 cells [1]; flow cytometry day 5): 48% | MIC-A/B GeoMFI (PC3 cells [1]; flow cytometry day 5): 124 | % change MIC-A/B % Pos (PC3 cells [1]; vs DMSO): −20% | % change MIC-A/B GeoMFI (PC3 cells [1]; vs DMSO): 7% | MIC-A/B % Pos (MDA-MB-231 cells; flow cytometry day 5): 94.6% | MIC-A/B GeoMFI (MDA-MB-231 cells; flow cytometry day 5): 2880 | % change MIC-A/B % Pos (MDA-MB-231 cells; vs DMSO): 6% | % change MIC-A/B GeoMFI (MDA-MB-231 cells; vs DMSO): 411%
Compound: O=C(NO)c1cnc(N2CC3C(C2)C3NCc2ccc3cc(F)ccc3n2)nc1 (centres unmarked) [VRx-3996, 2-(6-{[(6-Fluoroquinolin-2-yl)methyl]amino}-3-azabicyclo[3.1.0]hex-3-yl)-N-hydroxypyrimidine-5-carboxamide]
CD155 % Pos (PC3 cells [1]; flow cytometry day 5): 95.9% | CD155 GeoMFI (PC3 cells [1]; flow cytometry day 5): 742 | EGFR % Pos (PC3 cells [1]; flow cytometry day 5): 75.6% | EGFR GeoMFI (PC3 cells [1]; flow cytometry day 5): 291 | Fas % Pos (PC3 cells [1]; flow cytometry day 5): 35.3% | Fas GeoMFI (PC3 cells [1]; flow cytometry day 5): 79 | HLA-A, B, C % Pos (PC3 cells [1]; flow cytometry day 5): 94.4% | HLA-A, B, C GeoMFI (PC3 cells [1]; flow cytometry day 5): 1198 | ICAM-1 % Pos (PC3 cells [1]; flow cytometry day 5): 66.8% | ICAM-1 GeoMFI (PC3 cells [1]; flow cytometry day 5): 129 | PD-L1 % Pos (PC3 cells [1]; flow cytometry day 5): 28% | PD-L1 GeoMFI (PC3 cells [1]; flow cytometry day 5): 43 | ULBP-3 % Pos (PC3 cells [1]; flow cytometry day 5): 7.6% | ULBP-3 GeoMFI (PC3 cells [1]; flow cytometry day 5): 31 | % change CD155 % Pos (PC3 cells [1]; vs DMSO): <5% | % change CD155 GeoMFI (PC3 cells [1]; vs DMSO): 50% | % change EGFR % Pos (PC3 cells [1]; vs DMSO): −15% | % change EGFR GeoMFI (PC3 cells [1]; vs DMSO): −33% | % change Fas % Pos (PC3 cells [1]; vs DMSO): −32% | % change Fas GeoMFI (PC3 cells [1]; vs DMSO): −7% | % change HLA-A, B, C % Pos (PC3 cells [1]; vs DMSO): <5% | % change HLA-A, B, C GeoMFI (PC3 cells [1]; vs DMSO): 77% | % change ICAM-1 % Pos (PC3 cells [1]; vs DMSO): <5% | % change ICAM-1 GeoMFI (PC3 cells [1]; vs DMSO): 32% | % change PD-L1 % Pos (PC3 cells [1]; vs DMSO): −39% | % change PD-L1 GeoMFI (PC3 cells [1]; vs DMSO): −27% | % change ULBP-3 % Pos (PC3 cells [1]; vs DMSO): −88% | % change ULBP-3 GeoMFI (PC3 cells [1]; vs DMSO): −75% | Histone H3 deacetylation (acetyl-lysine 9 on Histone H3) (HDAC [2]): inhibits Histone H3 deacetylation | FoxP3+ regulatory T cells in PBMCs [3, 6]: Reduces | FoxP3 in T regulatory subsets (FACS, FIGS. 5A and 5B) [3, 6]: reduced | B cell median frequency ([3]; PBMCs, 7 patients): 6.37 % of PBMC | B cells PDL1+ median frequency ([3]; PBMCs, 7 patients): 0.55 % of PBMC | CD4 CM PD1+ median frequency ([3]; PBMCs, 7 patients): 3.24 % of PBMC | CD4 median frequency ([3]; PBMCs, 7 patients): 42.36 % of PBMC | CD8 Tim3+ median frequency ([3]; PBMCs, 7 patients): 0.06 % of PBMC | CD8 median frequency ([3]; PBMCs, 7 patients): 17.67 % of PBMC | CD8 naive median frequency ([3]; PBMCs, 7 patients): 4.99 % of PBMC | CD49d neg Treg median frequency ([3]; PBMCs, 7 patients): 5.66 % of CD4 | ICOS+ CD4 median frequency ([3]; PBMCs, 7 patients): 1.26 % of PBMC | ICOS+ PD-1+ CD4 median frequency ([3]; PBMCs, 7 patients): 0.5 % of PBMC | ICOS+ Treg median frequency ([3]; PBMCs, 7 patients): 2.31 % of CD4 | MDSC CD16+ median frequency ([3]; PBMCs, 7 patients): 2.19 % of PBMC | MDSC median frequency ([3]; PBMCs, 7 patients): 5.32 % of PBMC | NK median frequency ([3]; PBMCs, 7 patients): 3.46 % of PBMC | NKT PD1+ median frequency ([3]; PBMCs, 7 patients): 0.75 % of PBMC | NKT median frequency ([3]; PBMCs, 7 patients): 4.24 % of PBMC | PD-1+ Treg median frequency ([3]; PBMCs, 7 patients): 2.31 % of CD4 | Total Treg median frequency ([3]; PBMCs, 7 patients): 9.39 % of CD4 | Treg CD49d neg median frequency ([3]; PBMCs, 7 patients): 0.27 % of PBMC | Treg ICOS+ median frequency ([3]; PBMCs, 7 patients): 0.14 % of PBMC | Treg median frequency ([3]; PBMCs, 7 patients): 0.47 % of PBMC | cDC median frequency ([3]; PBMCs, 7 patients): 0.11 % of PBMC | dnMDSC PDL1+ median frequency ([3]; PBMCs, 7 patients): 0.07 % of PBMC | dnMDSC median frequency ([3]; PBMCs, 7 patients): 0.36 % of PBMC | mMDSC CD16+ median frequency ([3]; PBMCs, 7 patients): 2.08 % of PBMC | mMDSC median frequency ([3]; PBMCs, 7 patients): 4.15 % of PBMC | pDC median frequency ([3]; PBMCs, 7 patients): <0.01 % of PBMC | Histone H3 deacetylation (acetyl-lysine 9 on Histone H3) (HDAC [4]): inhibits Histone H3 deacetylation | Sensitization of PC3 cells to NK lysis (PC3 cells [5]): Sensitizes PC3 Cells to NK Lysis | CD122 % Pos (MDA-MB-231 cells; flow cytometry day 5): 81.9% | CD122 GeoMFI (MDA-MB-231 cells; flow cytometry day 5): 735 | CD155 % Pos (MDA-MB-231 cells; flow cytometry day 5): 96.1% | CD155 GeoMFI (MDA-MB-231 cells; flow cytometry day 5): 2937 | EGFR % Pos (MDA-MB-231 cells; flow cytometry day 5): 81.9% | EGFR GeoMFI (MDA-MB-231 cells; flow cytometry day 5): 735 | Fas % Pos (MDA-MB-231 cells; flow cytometry day 5): 27.3% | Fas GeoMFI (MDA-MB-231 cells; flow cytometry day 5): 190 | HLA-A, B, C % Pos (MDA-MB-231 cells; flow cytometry day 5): 96.2% | HLA-A, B, C GeoMFI (MDA-MB-231 cells; flow cytometry day 5): 2470 | ICAM-1 % Pos (MDA-MB-231 cells; flow cytometry day 5): 96.2% | ICAM-1 GeoMFI (MDA-MB-231 cells; flow cytometry day 5): 8554 | PD-L1 % Pos (MDA-MB-231 cells; flow cytometry day 5): 80% | PD-L1 GeoMFI (MDA-MB-231 cells; flow cytometry day 5): 303 | TRAIL-R1(DR4) % Pos (MDA-MB-231 cells; flow cytometry day 5): 27.1% | TRAIL-R1(DR4) GeoMFI (MDA-MB-231 cells; flow cytometry day 5): 107 | ULBP-2/5/6 % Pos (MDA-MB-231 cells; flow cytometry day 5): 75.9% | ULBP-2/5/6 GeoMFI (MDA-MB-231 cells; flow cytometry day 5): 365 | % change CD122 % Pos (MDA-MB-231 cells; vs DMSO): −10% | % change CD122 GeoMFI (MDA-MB-231 cells; vs DMSO): 119% | % change CD155 % Pos (MDA-MB-231 cells; vs DMSO): <5% | % change CD155 GeoMFI (MDA-MB-231 cells; vs DMSO): 197% | % change EGFR % Pos (MDA-MB-231 cells; vs DMSO): −10% | % change EGFR GeoMFI (MDA-MB-231 cells; vs DMSO): 119% | % change Fas % Pos (MDA-MB-231 cells; vs DMSO): −23% | % change Fas GeoMFI (MDA-MB-231 cells; vs DMSO): 184% | % change HLA-A, B, C % Pos (MDA-MB-231 cells; vs DMSO): <5% | % change HLA-A, B, C GeoMFI (MDA-MB-231 cells; vs DMSO): 142% | % change ICAM-1 % Pos (MDA-MB-231 cells; vs DMSO): <5% | % change ICAM-1 GeoMFI (MDA-MB-231 cells; vs DMSO): 546% | % change PD-L1 % Pos (MDA-MB-231 cells; vs DMSO): <5% | % change PD-L1 GeoMFI (MDA-MB-231 cells; vs DMSO): 175% | % change TRAIL-R1(DR4) % Pos (MDA-MB-231 cells; vs DMSO): 293% | % change TRAIL-R1(DR4) GeoMFI (MDA-MB-231 cells; vs DMSO): 1290% | % change ULBP-2/5/6 % Pos (MDA-MB-231 cells; vs DMSO): 6.5% | % change ULBP-2/5/6 GeoMFI (MDA-MB-231 cells; vs DMSO): 244%
